Source: paper PMC2689245, “Purification and characterization of a serine protease (CESP) from mature coconut endosperm” (BMC Research Notes, 2009)

Tested on: T1, CESP (coconut endosperm protease)
T1 construct: native, purified from fully matured coconut kernel (endosperm)
Test: p-nitroaniline release at […] nm
Format: biochemical, Cocos nucifera
Conditions: 100 mM Tris HCl pH 8.5, 37 °C

Work on `N=C(N)NCCCC(NC(=O)c1ccccc1)C(=O)Nc1ccc([N+](=O)[O-])cc1` (racemic) [BAPNA] yielded a Km of 200 µM.
